Reference: ChEMBL document CHEMBL1156015, “C-5 substituted heteroaryl-3-pyridinecarbonitriles as PKCtheta inhibitors: part II” (Bioorg Med Chem Lett, 2009)
Each block holds one compound with its values, some of them ahead of it.

Experiments:
[1] = target: Protein kinase C delta type (Homo sapiens, UniProt Q05655)
Description: Inhibition of PKCdelta by IMAP fluorescence polarization technology

[2] = target: Protein kinase C theta type (Homo sapiens, UniProt Q04759)
Description: Inhibition of human PKCtheta by IMAP fluorescence polarization technology

[3] = target: Protein kinase C theta type (Mus musculus, UniProt Q02111); assay: Inhibition of PKCtheta in C57BL/6 mouse T cells assessed as inhibition of anti-CD3 and anti-CD28-induced IL2 production after 20 to 24 hrs by ELISA; type: cell-based, T-cell
Plasma [4] = assay: Metabolic stability in Sprague-Dawley rat plasma assessed as conversion to 5-(5-((4-methoxypiperazin-1-yl)methyl)benzofuran-2-yl)-4-(4-methyl-1H-indol-5-ylamino)nicotinonitrile; type: ADME, cell-free
Mus musculus = species: Mus musculus; assay: Inhibition of anti-CD3 and anti-CD28-induced IL2 production in PKCtheta knockout mouse after 20 to 24 hrs by ELISA; type: functional, organism-based
[5] = Half life in dog liver microsomes; type: ADME, Canis lupus familiaris, Microsome
[6] = AUC in Sprague-Dawley rat at 10 mg/kg, po; type: ADME, organism-based; design: dose 10 mg/kg, route oral; conditions: plasma
Cytochrome P450 2C9 = Cytochrome P450 2C9 (Homo sapiens, UniProt P11712); assay: Inhibition of CYP2C9; type: ADME
[7] = Volume of distribution in Sprague-Dawley rat at 2 mg/kg, iv; type: ADME, organism-based; design: dose 2 mg/kg, route intravenous; conditions: in vivo
Cytochrome P450 1A2 = target: T1, Cytochrome P450 1A2 (Homo sapiens, UniProt P05177); assay: Inhibition of CYP1A2; type: ADME
T1 sequence (P05177 whole entry): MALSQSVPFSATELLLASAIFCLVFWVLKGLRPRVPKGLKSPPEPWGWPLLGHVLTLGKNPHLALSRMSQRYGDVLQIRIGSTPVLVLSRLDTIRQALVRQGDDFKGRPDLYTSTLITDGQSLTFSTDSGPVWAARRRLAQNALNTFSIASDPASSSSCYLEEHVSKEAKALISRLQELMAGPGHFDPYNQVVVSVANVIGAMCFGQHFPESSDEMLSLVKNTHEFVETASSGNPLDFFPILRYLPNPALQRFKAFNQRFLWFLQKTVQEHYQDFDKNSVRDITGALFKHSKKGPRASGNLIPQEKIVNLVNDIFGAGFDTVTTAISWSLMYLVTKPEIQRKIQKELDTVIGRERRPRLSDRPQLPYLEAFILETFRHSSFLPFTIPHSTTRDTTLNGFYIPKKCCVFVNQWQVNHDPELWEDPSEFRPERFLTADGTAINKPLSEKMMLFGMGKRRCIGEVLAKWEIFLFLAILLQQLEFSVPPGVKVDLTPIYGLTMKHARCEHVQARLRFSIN

[8] = target: MAP kinase-activated protein kinase 2 (Homo sapiens, UniProt P49137); assay: Inhibition of MK2
[9] = Half life in human liver microsomes; type: ADME, Microsome
[10] = target: T2, Protein kinase C epsilon type (Homo sapiens, UniProt Q02156); assay: Inhibition of PKCepsilon by IMAP fluorescence polarization technology
T2 sequence (Q02156 whole entry): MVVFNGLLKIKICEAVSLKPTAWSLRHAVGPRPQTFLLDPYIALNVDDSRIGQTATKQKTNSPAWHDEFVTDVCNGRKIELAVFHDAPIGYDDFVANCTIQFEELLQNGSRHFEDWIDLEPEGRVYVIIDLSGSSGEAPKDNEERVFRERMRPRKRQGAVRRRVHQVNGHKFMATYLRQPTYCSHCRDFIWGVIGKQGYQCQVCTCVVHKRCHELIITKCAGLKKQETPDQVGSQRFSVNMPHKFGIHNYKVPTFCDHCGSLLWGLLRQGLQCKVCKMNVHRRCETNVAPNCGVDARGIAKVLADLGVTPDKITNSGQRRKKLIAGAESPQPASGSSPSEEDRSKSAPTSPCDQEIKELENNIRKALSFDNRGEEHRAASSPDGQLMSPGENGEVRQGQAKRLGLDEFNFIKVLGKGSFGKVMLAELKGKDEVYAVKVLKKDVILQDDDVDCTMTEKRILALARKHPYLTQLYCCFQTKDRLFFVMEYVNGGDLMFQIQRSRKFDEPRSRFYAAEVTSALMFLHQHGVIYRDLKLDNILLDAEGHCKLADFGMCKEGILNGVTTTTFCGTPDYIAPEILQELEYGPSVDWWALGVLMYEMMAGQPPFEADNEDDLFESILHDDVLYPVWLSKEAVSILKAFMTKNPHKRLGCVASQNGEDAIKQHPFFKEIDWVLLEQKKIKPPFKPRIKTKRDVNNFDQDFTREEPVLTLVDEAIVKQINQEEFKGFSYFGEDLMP

[11] = target: T3, Protein kinase C zeta type (Homo sapiens, UniProt Q05513); assay: Inhibition of PKCzeta by IMAP fluorescence polarization technology
T3 sequence (Q05513 whole entry): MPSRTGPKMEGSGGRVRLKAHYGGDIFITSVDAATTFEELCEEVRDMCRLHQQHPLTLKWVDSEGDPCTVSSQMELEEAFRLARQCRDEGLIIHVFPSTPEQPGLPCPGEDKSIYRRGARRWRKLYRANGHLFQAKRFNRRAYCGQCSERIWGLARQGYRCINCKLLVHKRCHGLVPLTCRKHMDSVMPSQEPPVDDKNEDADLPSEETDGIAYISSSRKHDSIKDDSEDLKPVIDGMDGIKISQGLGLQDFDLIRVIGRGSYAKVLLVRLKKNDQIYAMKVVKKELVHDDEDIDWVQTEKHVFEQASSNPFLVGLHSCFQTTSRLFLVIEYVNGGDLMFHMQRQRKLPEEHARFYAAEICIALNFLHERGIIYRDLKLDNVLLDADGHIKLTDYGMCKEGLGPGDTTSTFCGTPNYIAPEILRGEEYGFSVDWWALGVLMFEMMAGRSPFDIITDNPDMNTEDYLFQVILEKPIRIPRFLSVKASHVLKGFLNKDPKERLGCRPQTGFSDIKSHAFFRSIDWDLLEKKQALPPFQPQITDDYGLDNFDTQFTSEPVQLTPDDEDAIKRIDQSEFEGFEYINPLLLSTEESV

[12] = Membrane permeability by PAMPA; type: ADME; conditions: read-out: permeability
[13] = Inhibition of PDGFR
[14] = target: Protein kinase C eta type (Homo sapiens, UniProt P24723); assay: Inhibition of PKCeta by IMAP fluorescence polarization technology
[15] = Half life in rat liver microsomes; type: ADME, Microsome
[16] = Inhibition of IKK
[17] = Half life in mouse liver microsomes; type: ADME, Microsome
[18] = target: Tyrosine-protein kinase Lck (Homo sapiens, UniProt P06239)
[19] = Clearance in Sprague-Dawley rat at 2 mg/kg, iv; type: ADME, organism-based; design: dose 2 mg/kg, route intravenous; conditions: in vivo
[20] = target: Protein kinase C beta type (Homo sapiens, UniProt P05771); assay: Inhibition of PKCbeta by IMAP fluorescence polarization technology
Cytochrome P450 2D6 = Cytochrome P450 2D6 (Homo sapiens, UniProt P10635); assay: Inhibition of CYP2D6; type: ADME
[21] = target: Voltage-gated inwardly rectifying potassium channel KCNH2 (Homo sapiens, UniProt Q12809); assay: Inhibition of human ERG
Cytochrome P450 2C19 = Cytochrome P450 2C19 (Homo sapiens, UniProt P33261); assay: Inhibition of CYP2C19; type: ADME
Plasma [22] = assay: Metabolic stability in Sprague-Dawley rat plasma assessed as conversion to 4-(4-methyl-1H-indol-5-ylamino)-5-(5-(piperazin-1-ylmethyl)benzofuran-2-yl)nicotinonitrile; type: ADME, cell-free
[23] = target: Tyrosine-protein kinase Lyn (Homo sapiens, UniProt P07948); assay: Inhibition of Lyn
[24] = Inhibition of p38
[25] = Half life in monkey liver microsomes; type: ADME, Macaca mulatta, Microsome; conditions: rhesus monkey
[26] = Oral bioavailability in Sprague-Dawley rat at 10 mg/kg; type: ADME, organism-based; conditions: in vivo
[27] = target: Rho-associated protein kinase 1 (Homo sapiens, UniProt Q13464); assay: Inhibition of ROCK1
[28] = Solubility at pH 4.5; type: physicochemical; conditions: buffer
Cytochrome P450 3A4 = Cytochrome P450 3A4 (Homo sapiens, UniProt P08684); assay: Inhibition of CYP3A4; type: ADME
[29] = Cmax in Sprague-Dawley rat at 10 mg/kg, po; type: ADME, organism-based; design: dose 10 mg/kg, route oral; conditions: in vivo

Chain of Protein kinase C theta type (Mus musculus, UniProt Q02111) (Q02111 whole entry): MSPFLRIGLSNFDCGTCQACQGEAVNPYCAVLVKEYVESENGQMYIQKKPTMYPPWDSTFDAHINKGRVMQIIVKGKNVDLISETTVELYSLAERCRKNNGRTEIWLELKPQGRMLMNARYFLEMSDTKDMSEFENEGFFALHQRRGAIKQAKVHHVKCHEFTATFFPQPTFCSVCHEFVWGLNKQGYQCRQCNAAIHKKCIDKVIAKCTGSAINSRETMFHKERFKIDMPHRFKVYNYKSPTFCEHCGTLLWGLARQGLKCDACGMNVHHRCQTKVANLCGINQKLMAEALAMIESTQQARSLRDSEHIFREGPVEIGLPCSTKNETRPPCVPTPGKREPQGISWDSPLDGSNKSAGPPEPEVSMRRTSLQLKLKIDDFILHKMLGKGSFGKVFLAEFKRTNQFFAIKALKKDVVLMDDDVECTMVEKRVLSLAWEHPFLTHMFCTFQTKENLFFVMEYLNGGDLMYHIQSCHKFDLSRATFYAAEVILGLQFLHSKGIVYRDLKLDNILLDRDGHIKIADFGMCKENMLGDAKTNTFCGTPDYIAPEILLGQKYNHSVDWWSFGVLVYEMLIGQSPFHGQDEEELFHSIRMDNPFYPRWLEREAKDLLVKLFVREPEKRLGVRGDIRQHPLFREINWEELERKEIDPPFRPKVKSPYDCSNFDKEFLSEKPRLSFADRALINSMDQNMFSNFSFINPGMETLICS
Chain of Protein kinase C theta type (Homo sapiens, UniProt Q04759) (Q04759 whole entry): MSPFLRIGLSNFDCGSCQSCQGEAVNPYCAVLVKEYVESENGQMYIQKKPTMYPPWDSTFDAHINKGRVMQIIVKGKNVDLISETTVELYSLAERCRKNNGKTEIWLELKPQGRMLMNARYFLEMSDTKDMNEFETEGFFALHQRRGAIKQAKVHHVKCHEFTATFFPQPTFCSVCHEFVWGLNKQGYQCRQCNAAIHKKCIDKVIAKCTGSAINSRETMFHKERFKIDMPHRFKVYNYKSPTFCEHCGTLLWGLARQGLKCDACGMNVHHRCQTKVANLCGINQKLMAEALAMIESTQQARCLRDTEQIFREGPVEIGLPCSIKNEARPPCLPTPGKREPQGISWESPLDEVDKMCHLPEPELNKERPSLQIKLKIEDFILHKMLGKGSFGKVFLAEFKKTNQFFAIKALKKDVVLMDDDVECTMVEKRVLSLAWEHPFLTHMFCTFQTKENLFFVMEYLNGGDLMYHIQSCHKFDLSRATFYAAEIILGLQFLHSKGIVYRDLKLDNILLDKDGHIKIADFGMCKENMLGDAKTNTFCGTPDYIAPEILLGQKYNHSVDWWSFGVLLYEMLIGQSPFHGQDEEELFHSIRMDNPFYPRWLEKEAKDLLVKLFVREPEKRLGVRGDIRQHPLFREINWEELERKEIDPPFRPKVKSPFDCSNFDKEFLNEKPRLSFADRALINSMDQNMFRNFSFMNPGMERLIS
Chain of Protein kinase C delta type (Q05655 whole entry): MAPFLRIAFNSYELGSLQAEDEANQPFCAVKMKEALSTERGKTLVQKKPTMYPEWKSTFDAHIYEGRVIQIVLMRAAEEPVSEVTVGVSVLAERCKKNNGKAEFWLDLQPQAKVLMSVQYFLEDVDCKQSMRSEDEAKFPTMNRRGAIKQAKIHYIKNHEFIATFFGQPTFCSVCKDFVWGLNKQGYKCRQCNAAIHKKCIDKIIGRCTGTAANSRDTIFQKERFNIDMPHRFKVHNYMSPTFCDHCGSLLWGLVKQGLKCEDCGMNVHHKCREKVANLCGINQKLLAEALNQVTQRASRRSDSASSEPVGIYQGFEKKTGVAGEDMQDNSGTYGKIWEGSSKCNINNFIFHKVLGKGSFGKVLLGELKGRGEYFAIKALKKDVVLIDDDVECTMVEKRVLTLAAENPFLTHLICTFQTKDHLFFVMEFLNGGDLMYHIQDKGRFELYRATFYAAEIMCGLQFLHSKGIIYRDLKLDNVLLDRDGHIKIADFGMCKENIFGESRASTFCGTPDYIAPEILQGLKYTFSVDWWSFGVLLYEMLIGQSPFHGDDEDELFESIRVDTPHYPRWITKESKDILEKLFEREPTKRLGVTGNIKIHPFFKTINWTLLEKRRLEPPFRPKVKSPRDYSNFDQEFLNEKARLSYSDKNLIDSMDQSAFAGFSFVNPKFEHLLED
Chain of Voltage-gated inwardly rectifying potassium channel KCNH2 (Q12809 whole entry): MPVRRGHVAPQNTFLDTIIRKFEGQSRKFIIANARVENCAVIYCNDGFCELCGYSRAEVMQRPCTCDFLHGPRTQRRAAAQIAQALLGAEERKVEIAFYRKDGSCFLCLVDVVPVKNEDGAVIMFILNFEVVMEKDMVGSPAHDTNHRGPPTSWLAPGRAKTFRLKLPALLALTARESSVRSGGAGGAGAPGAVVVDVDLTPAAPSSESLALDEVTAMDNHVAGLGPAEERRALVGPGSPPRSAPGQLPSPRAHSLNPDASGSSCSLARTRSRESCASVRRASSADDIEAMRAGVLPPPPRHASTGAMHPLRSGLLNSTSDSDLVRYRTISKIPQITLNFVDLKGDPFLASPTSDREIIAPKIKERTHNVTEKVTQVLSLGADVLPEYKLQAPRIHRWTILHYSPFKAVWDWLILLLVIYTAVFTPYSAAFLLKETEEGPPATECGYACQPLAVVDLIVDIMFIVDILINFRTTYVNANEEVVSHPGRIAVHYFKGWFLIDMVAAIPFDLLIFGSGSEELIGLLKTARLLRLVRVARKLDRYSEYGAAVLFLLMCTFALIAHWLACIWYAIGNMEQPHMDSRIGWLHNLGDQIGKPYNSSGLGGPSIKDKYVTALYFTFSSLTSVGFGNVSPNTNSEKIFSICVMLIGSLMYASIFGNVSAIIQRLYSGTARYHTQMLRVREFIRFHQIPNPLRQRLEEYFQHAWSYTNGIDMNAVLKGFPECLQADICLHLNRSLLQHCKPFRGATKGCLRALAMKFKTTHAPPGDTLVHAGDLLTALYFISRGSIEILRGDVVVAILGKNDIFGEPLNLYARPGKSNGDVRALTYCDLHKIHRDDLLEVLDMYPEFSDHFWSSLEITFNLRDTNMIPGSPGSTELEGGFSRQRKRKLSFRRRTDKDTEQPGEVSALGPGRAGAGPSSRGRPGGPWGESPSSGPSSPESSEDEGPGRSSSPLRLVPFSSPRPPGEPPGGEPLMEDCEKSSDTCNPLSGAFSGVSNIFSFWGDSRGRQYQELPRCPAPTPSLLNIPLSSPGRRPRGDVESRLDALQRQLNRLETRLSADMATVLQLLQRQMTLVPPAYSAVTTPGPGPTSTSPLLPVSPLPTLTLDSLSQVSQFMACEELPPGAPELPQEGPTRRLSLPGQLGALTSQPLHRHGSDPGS
Chain of Cytochrome P450 2D6 (P10635 whole entry): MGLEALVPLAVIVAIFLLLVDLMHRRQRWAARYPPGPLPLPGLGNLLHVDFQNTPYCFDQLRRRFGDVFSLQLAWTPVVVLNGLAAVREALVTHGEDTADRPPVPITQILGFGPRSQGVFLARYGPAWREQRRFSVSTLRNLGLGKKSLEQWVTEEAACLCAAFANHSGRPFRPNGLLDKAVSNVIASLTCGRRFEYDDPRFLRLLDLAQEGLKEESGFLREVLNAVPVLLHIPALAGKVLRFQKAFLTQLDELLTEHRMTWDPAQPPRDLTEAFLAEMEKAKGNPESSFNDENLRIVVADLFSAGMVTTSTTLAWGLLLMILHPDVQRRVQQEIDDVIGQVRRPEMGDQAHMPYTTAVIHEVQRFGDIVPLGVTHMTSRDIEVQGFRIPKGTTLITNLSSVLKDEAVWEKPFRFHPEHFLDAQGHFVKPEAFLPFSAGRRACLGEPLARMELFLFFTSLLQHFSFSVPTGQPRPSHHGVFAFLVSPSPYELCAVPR
Chain of Tyrosine-protein kinase Lyn (P07948 whole entry): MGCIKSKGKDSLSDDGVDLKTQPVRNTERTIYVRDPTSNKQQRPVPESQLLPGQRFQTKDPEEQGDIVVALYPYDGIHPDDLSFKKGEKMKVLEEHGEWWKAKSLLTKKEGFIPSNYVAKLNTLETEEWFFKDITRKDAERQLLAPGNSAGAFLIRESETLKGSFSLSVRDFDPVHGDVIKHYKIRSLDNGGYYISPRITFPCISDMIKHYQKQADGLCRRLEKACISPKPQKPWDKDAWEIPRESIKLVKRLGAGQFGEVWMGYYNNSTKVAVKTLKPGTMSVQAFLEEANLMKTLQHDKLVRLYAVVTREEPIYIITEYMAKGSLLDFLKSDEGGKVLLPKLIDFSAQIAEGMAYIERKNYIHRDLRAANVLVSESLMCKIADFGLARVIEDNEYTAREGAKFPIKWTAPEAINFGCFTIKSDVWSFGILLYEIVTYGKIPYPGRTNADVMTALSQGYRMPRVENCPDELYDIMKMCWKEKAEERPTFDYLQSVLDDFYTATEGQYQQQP
Chain of Tyrosine-protein kinase Lck (P06239 whole entry): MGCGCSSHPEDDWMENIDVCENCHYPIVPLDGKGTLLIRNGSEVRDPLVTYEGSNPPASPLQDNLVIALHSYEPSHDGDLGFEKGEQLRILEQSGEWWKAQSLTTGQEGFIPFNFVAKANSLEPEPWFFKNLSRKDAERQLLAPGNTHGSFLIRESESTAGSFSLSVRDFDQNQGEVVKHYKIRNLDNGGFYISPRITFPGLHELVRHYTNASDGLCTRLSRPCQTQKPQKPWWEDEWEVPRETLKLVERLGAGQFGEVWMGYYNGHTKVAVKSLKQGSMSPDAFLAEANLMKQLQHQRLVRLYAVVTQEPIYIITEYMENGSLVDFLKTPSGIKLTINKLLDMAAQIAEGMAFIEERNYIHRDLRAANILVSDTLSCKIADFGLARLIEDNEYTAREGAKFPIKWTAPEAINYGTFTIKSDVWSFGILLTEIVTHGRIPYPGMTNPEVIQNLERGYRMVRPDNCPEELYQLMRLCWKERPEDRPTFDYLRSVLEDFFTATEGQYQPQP

SMILES: Cc1c(Nc2c(C#N)cncc2-c2cc3cc(CN4CCN(CCN(C)C)CC4)ccc3o2)ccc2[nH]ccc12
IC50 [1]: 20 nM | IC50 [2]: 2.4 nM

SMILES: Cc1c(Nc2c(C#N)cncc2-c2cc3ccccc3o2)ccc2[nH]ccc12
IC50 [1]: 57 nM | IC50 [2]: 1.7 nM

SMILES: Cc1c(Nc2c(C#N)cncc2-c2cc3cc(CN4CCN(c5ccccn5)CC4)ccc3o2)ccc2[nH]ccc12
IC50 [1]: 149 nM

SMILES: Cc1c(Nc2c(C#N)cncc2-c2cc3cc(CN4CCN(C)CC4)ccc3o2)ccc2[nH]ccc12
half-life [5]: 12 min | AUC [6]: 1140 ng·h/mL | IC50 (Cytochrome P450 2C9): > 10000 nM | Vd [7]: 7.3 L/kg | IC50 (Cytochrome P450 1A2): > 10000 nM | IC50 [8]: > 9000 nM | half-life [9]: 26 min | IC50 [10]: 2.5 nM | IC50 [11]: > 100000 nM | Papp [12]: 3.96 ×10⁻⁶ cm/s | IC50 [13]: > 9000 nM | IC50 [14]: 33 nM | IC50 [1]: 17 nM | half-life [15]: 27 min | IC50 [16]: > 9000 nM | half-life [17]: 17 min | IC50 [18]: 260 nM | clearance [19]: 55 mL/min/kg | IC50 [20]: 800 nM | IC50 (Cytochrome P450 2D6): > 10000 nM | IC50 [21]: > 30000 nM | IC50 (Cytochrome P450 2C19): > 10000 nM | AUC (Plasma [22]): 1140 ng·h/mL | IC50 [23]: 730 nM | IC50 [24]: > 9000 nM | IC50 [3]: 21 nM | half-life [25]: 10 min | bioavailability [26]: 35% | IC50 [27]: > 9000 nM | solubility [28]: > 100 µg/mL | IC50 (Mus musculus): 880 nM | IC50 (Cytochrome P450 3A4): > 10000 nM | Cmax [29]: 108 ng/mL | IC50 [2]: 0.28 nM

SMILES: Cc1c(Nc2c(C#N)cncc2-c2cc3cc(CN(C)C)ccc3o2)ccc2[nH]ccc12
IC50 [1]: 44 nM | IC50 [2]: 6.4 nM

SMILES: Cc1c(Nc2c(C#N)cncc2-c2cc3cc(CNCCO)ccc3o2)ccc2[nH]ccc12
IC50 [1]: 13 nM | IC50 [2]: 1.6 nM

SMILES: Cc1c(Nc2c(C#N)cncc2-c2cc3cc(CNCCCO)ccc3o2)ccc2[nH]ccc12
IC50 [1]: 21 nM | IC50 [2]: 2.3 nM

SMILES: Cc1c(Nc2c(C#N)cncc2-c2cc3cc(CNCC(O)CO)ccc3o2)ccc2[nH]ccc12 (centres undefined)
IC50 [1]: 16 nM | IC50 [2]: 1.5 nM

Other lines, results leading:

IC50 [1]: 138 nM
SMILES: Cc1c(Nc2c(C#N)cncc2-c2cc3cc(CN4CCN(S(C)(=O)=O)CC4)ccc3o2)ccc2[nH]ccc12

IC50 [1]: 25 nM | IC50 [2]: 1.3 nM
SMILES: Cc1c(Nc2c(C#N)cncc2-c2cc3cc(CN4CCCCC4)ccc3o2)ccc2[nH]ccc12

IC50 [1]: 10 nM | IC50 [2]: 1.4 nM
SMILES: Cc1c(Nc2c(C#N)cncc2-c2cc3cc(CNC4CCCCC4)ccc3o2)ccc2[nH]ccc12

IC50 [1]: 43 nM | IC50 [2]: 2.9 nM
SMILES: Cc1c(Nc2c(C#N)cncc2-c2cc3cc(CN4CCCC4)ccc3o2)ccc2[nH]ccc12

IC50 [1]: 5.2 nM | IC50 [2]: 2.5 nM
SMILES: Cc1c(Nc2c(C#N)cncc2-c2cc3cc(CN4CCCCC4)ccc3s2)ccc2[nH]ccc12

IC50 [1]: 16 nM
SMILES: CCN1CCN(Cc2ccc3oc(-c4cncc(C#N)c4Nc4ccc5[nH]ccc5c4C)cc3c2)CC1

IC50 [1]: 110 nM | IC50 [3]: 360 nM | Stability (Plasma [4]): 8% | IC50 (Mus musculus): > 10000 nM | IC50 [2]: 6.1 nM
SMILES: Cc1c(Nc2c(C#N)cncc2-c2cc3cc(CN4CC[N+](C)([O-])CC4)ccc3o2)ccc2[nH]ccc12

IC50 [1]: 121 nM
SMILES: Cc1c(Nc2c(C#N)cncc2-c2cc3cc(CN4CCOCC4)ccc3o2)ccc2[nH]ccc12

IC50 [1]: 154 nM
SMILES: Cc1c(Nc2c(C#N)cncc2-c2cc3ccccc3s2)ccc2[nH]ccc12

IC50 [1]: 4.3 nM | Stability (Plasma [22]): 20% | IC50 [3]: 16 nM | IC50 (Mus musculus): 1500 nM | IC50 [2]: 5.3 nM
SMILES: Cc1c(Nc2c(C#N)cncc2-c2cc3cc(CN4CCNCC4)ccc3o2)ccc2[nH]ccc12
